From patent US20150291598A1 (NOVARTIS AG, priority 2012, published 2015)
Read-outs that look alike come from different tables or passages of the source.

Tested on: P. falciparum (NF54 or 3D7 strain)
Test: Assay for P. falciparum proliferation in infected human blood cells (SYBR Green)
Format: cell-based, Plasmodium falciparum
Details: Plasmodium falciparum, Erythrocyte
Method: Assay for P. falciparum Proliferation in Infected Human Blood Cells
Compounds of the invention can be assayed to measure their capacity to inhibit proliferation of P. falciparum parasitemia in infected red blood cells. This parasite proliferation assay measures the increase in parasite DNA content using a DNA intercalating dye, SYBR Green® (INVITROGEN®) which has a high affinity for double stranded DNA.
NF54 or 3D7 P. falciparum strain is grown in complete culturing media until parasitemia reaches 3% to 8% with O+ human erythrocytes. […] 20 μl of screening media is dispensed into 384 well assay plates. 50 nl of compounds of the invention (in DMSO), including antimalarial controls (mefloquine, pyrimethamine and artemisinin), are then transferred into the assay plates, as well as DMSO alone to serve as a negative control for inhibition. Then 30 μl of a suspension of a NF54 or 3D7 P. falciparum infected erythrocytes in screening media is dispensed into the assay plates such that the final hematocrit is 2.5% with a final parasitemia of 0.3%. The plates are placed in a 37° C. incubator for 72 hours in a low oxygen environment containing 93% N2, 4% CO2, and 3% O2 gas mixture. 10 μl of lysis buffer (saponin, triton-X, EDTA) containing a 10× solution of SYBR Green I® in RPMI media is dispensed into the plates. The plates are lidded and kept at room temperature overnight for the lysis of the infected red blood cells. The fluorescence intensity is measured (excitation […], emission 530 nm) using the Envision™ system (Perkin Elmer).

[1] = 72 h, NF54 or 3D7 infected human erythrocytes, 72 hours, read-out: EC50 (nM), inhibitory efficacy in delaying P. falciparum proliferation in infected human blood cells

SMILES	EC50 [1] [nM]	EC50 (infected human red blood cells, read-out: EC50, P. falciparum Proliferation Assay) [nM]
COc1ccc(N(C)C(=O)c2cn3c(-c4ccc(C(F)(F)F)cc4)cnc3cn2)cc1 [Compound 139, N-(4-methoxyphenyl)-N-methyl-3-[4-(trifluoromethyl)phenyl]imidazo[1,2-a]pyrazine-6-carboxamide]	1160	–
CC(=O)Nc1ccc(-c2cnc3cnc(C(=O)N(C)c4ccc(C#N)cc4)cn23)cc1 [Compound 485, N-(4-cyanophenyl)-3-(4-acetamidophenyl)-N-methylimidazo[1,2-a]pyrazine-6-carboxamide]	54	–
COc1ccc(-c2cnc3cnc(C(=O)N(C)c4ccc(C#N)cc4)cn23)cc1Cl [Compound 42, -(3-chloro-4-methoxyphenyl)-N-(4-cyanophenyl)-N-methylimidazo[1,2-a]pyrazine-6-carboxamide]	333	–
COc1ccc(N(C)C(=O)c2cn3c(-c4ccc(C(F)(F)F)cc4)cnc3cn2)nn1 [Compound 395, N-(6-methoxypyridazin-3-yl)-N-methyl-3-[4-(trifluoromethyl)phenyl]imidazo[1,2-a]pyrazine-6-carboxamide]	5020	–
CN(C(=O)c1cn2c(-c3ccc(-c4ccn[nH]4)cc3)cnc2cn1)c1ccc(Cl)nc1 [Compound 224, N-(6-chloropyridin-3-yl)-N-methyl-3-[4-(1H-pyrazol-5-yl)phenyl]imidazo[1,2-a]pyrazine-6-carboxamide]	149	–
CN(Cc1cn2c(-c3ccc(OC(F)F)cc3)cnc2cn1)c1ccc(F)cc1 [Compound 21, N-({3-[4-(difluoromethoxy)phenyl]imidazo[1,2-a]pyrazin-6-yl}methyl)-4-fluoro-N-methylaniline]	46	–
CN(C(=O)c1cn2c(-c3ccc4c(ccn4C)c3)cnc2cn1)c1ccc(Cl)cc1 [Compound 141, N-(4-chlorophenyl)-N-methyl-3-(1-methyl-1H-indol-5-yl)imidazo[1,2-a]pyrazine-6-carboxamide]	433	–
CN(C(=O)c1cn2c(-c3ccc(C4NC(=O)NC4=O)cc3)cnc2cn1)c1ccc(C#N)cc1 (stereo not drawn) [Compound 165, N-(4-cyanophenyl)-3-[4-(2,5-dioxoimidazolidin-4-yl)phenyl]-N-methylimidazo[1,2-a]pyrazine-6-carboxamide]	4610	–
CN(C(=O)c1cn2c(-c3ccc(NCC(C)(C)N)cc3)cnc2cn1)c1ccc(C#N)cc1 [Compound 278, 3-{4-[(2-amino-2-methylpropyl)amino]phenyl}-N-(4-cyanophenyl)-N-methylimidazo[1,2-a]pyrazine-6-carboxamide]	784	–
CN(C(=O)c1cn2c(-c3ccc(NS(C)(=O)=O)cc3)cnc2cn1)c1ccc(Cl)nc1 [Compound 419, N-(6-chloropyridin-3-yl)-3-(4-methanesulfonamidophenyl)-N-methylimidazo[1,2-a]pyrazine-6-carboxamide]	> 8270	–
CN(C(=O)c1cn2c(-c3ccc(C(C)(C)C)cc3)cnc2cn1)c1ccc(C#N)cc1 [Compound 118, 3-(4-tert-butylphenyl)-N-(4-cyanophenyl)-N-methylimidazo[1,2-a]pyrazine-6-carboxamide]	135	–
NC(=O)c1ccc(-c2cn3c(-c4ccc(C(N)=O)cc4)cnc3cn2)cc1 [Compound 210, 4-[3-(4-carbamoylphenyl)imidazo[1,2-a]pyrazin-6-yl]benzamide]	1980	–
Cc1cc(C(F)(F)F)ccc1-c1cnc2cnc(C(=O)N(C)c3ccc(C#N)cc3)cn12 [Compound 150, N-(4-cyanophenyl)-N-methyl-3-[2-methyl-4-(trifluoromethyl)phenyl]imidazo[1,2-a]pyrazine-6-carboxamide]	3590	–
CNc1ccc(-c2cnc3cnc(C(=O)N(C)c4ccc(Cl)nc4)cn23)cc1 [Compound 398, N-(6-chloropyridin-3-yl)-N-methyl-3-[4-(methylamino)phenyl]imidazo[1,2-a]pyrazine-6-carboxamide]	6840	–
Cc1cc(Cl)ccc1-c1cnc2cnc(C(=O)N(C)c3ccc(C#N)cc3)cn12 [Compound 26, 3-(4-chloro-2-methylphenyl)-N-(4-cyanophenyl)-N-methylimidazo[1,2-a]pyrazine-6-carboxamide]	8330	–
CN(C(=O)c1cn2c(-c3ccc(-c4ccn[nH]4)cc3)cnc2cn1)c1ccc(C#N)cc1 [Compound 481, N-(4-cyanophenyl)-N-methyl-3-[4-(1H-pyrazol-5-yl)phenyl]imidazo[1,2-a]pyrazine-6-carboxamide]	34	–

SMILES	EC50 [1] [nM]	EC50 (infected human red blood cells, read-out: EC50, P. falciparum Proliferation Assay) [nM]
CN(C(=O)c1cn2c(-c3ccc4c(c3)CC(=O)N4)cnc2cn1)c1ccc(C#N)cc1 [Compound 204, N-(4-cyanophenyl)-N-methyl-3-(2-oxo-2,3-dihydro-1H-indol-5-yl)imidazo[1,2-a]pyrazine-6-carboxamide]	6510	–
CC(C)(NC(=O)c1cn2c(-c3ccc(C(F)(F)F)cc3)cnc2cn1)c1ccc(F)cc1 [Compound 414, N-[2-(4-fluorophenyl)propan-2-yl]-3-[4-(trifluoromethyl)phenyl]imidazo[1,2-a]pyrazine-6-carboxamide]	> 7910	–
CN(C(=O)c1cn2c(-c3ccc(C(F)(F)F)cc3F)cnc2cn1)c1ccc(Cl)nc1 [Compound 275, N-(6-chloropyridin-3-yl)-3-[2-fluoro-4-(trifluoromethyl)phenyl]-N-methylimidazo[1,2-a]pyrazine-6-carboxamide]	468	–
CC(=O)Nc1ccc(-c2cnc3cnc(CN(C)c4ccc(C)cn4)cn23)cn1 [Compound 242, N-[5-(6-{[methyl(5-methylpyridin-2-yl)amino]methyl}imidazo[1,2-a]pyrazin-3-yl)pyridin-2-yl]acetamide]	215	–
CN(C)c1ccc(-c2cnc3cnc(C(=O)N(C)c4ccc(C#N)cc4)cn23)cc1 [Compound 77, N-(4-cyanophenyl)-3-[4-(dimethylamino)phenyl]-N-methylimidazo[1,2-a]pyrazine-6-carboxamide]	116	–
CN(C(=O)c1cn2c(-c3ccc4c(ccn4C)c3)cnc2cn1)c1ccc(Cl)nc1 [Compound 84, N-(6-chloropyridin-3-yl)-N-methyl-3-(1-methyl-1H-indol-5-yl)imidazo[1,2-a]pyrazine-6-carboxamide]	1280	–
CN(C(=O)c1cn2c(-c3ccc(C(N)=O)cc3)cnc2cn1)c1ccc(C#N)cn1 [Compound 98, 3-(4-carbamoylphenyl)-N-(5-cyanopyridin-2-yl)-N-methylimidazo[1,2-a]pyrazine-6-carboxamide]	1500	–
COc1ccc(-c2cnc3cnc(C(=O)N(C)c4ccc(Cl)nc4)cn23)c(F)c1 [Compound 280, N-(6-chloropyridin-3-yl)-3-(2-fluoro-4-methoxyphenyl)-N-methylimidazo[1,2-a]pyrazine-6-carboxamide]	707	–
Cc1nnc(-c2ccc(-c3cnc4cnc(C(=O)N(C)c5ccc(C#N)cc5)cn34)cc2)o1 [Compound 163, N-(4-cyanophenyl)-N-methyl-3-[4-(5-methyl-1,3,4-oxadiazol-2-yl)phenyl]imidazo[1,2-a]pyrazine-6-carboxamide]	2630	–
CN(C(=O)c1cn2c(-c3ccc(C(F)(F)F)cc3)cnc2cn1)c1ccc(Br)nn1 [Compound 96, N-(6-bromopyridazin-3-yl)-N-methyl-3-[4-(trifluoromethyl)phenyl]imidazo[1,2-a]pyrazine-6-carboxamide]	9990	–
Cc1cncc(N(C)C(=O)c2cn3c(-c4ccc(C(F)(F)F)cc4)cnc3cn2)c1 [Compound 251, N-methyl-N-(5-methylpyridin-3-yl)-3-[4-(trifluoromethyl)phenyl]imidazo[1,2-a]pyrazine-6-carboxamide]	5520	–
CN(C(=O)c1cn2c(-c3ccc(OC(F)F)cc3)cnc2cn1)c1ccc(S(C)(=O)=O)cc1 [Compound 209, 3-[4-(difluoromethoxy)phenyl]-N-(4-methanesulfonylphenyl)-N-methylimidazo[1,2-a]pyrazine-6-carboxamide]	2700	–
CN(C(=O)c1cn2c(-c3ccc(C(F)(F)F)cc3)cnc2cn1)c1ccc(OC(F)(F)F)cc1 [Compound 173, N-methyl-N-[4-(trifluoromethoxy)phenyl]-3-[4-(trifluoromethyl)phenyl]imidazo[1,2-a]pyrazine-6-carboxamide]	4250	–
CNc1nnc(-c2ccc(-c3cnc4cnc(C(=O)N(C)c5ccc(F)cc5)cn34)cc2)o1 [Compound 478, N-(4-fluorophenyl)-N-methyl-3-{4-[5-(methylamino)-1,3,4-oxadiazol-2-yl]phenyl}imidazo[1,2-a]pyrazine-6-carboxamide]	31	< 50
CN(C(=O)c1cn2c(-c3ccc4c(c3)OCCO4)cnc2cn1)c1ccc(Cl)nc1 [Compound 360, N-(6-chloropyridin-3-yl)-3-(2,3-dihydro-1,4-benzodioxin-6-yl)-N-methylimidazo[1,2-a]pyrazine-6-carboxamide]	> 4570	–
COC(=O)Nc1ccc(-c2cnc3cnc(C(=O)N(C)c4ccc(C#N)cc4)cn23)cn1 [Compound 260, methyl N-(5-{6-[(4-cyanophenyl)(methyl)carbamoyl]imidazo[1,2-a]pyrazin-3-yl}pyridin-2-yl)carbamate]	399	–
